# Experimental data taken from the supplement of paper PMC10307832.
# Tests used:
# Assay in all cases: relative viability (nuclei count vs DMSO), 5 days (fraction); higher = more cells survive
# EMC-BAC-2 = test system: EMC-BAC-2
# Procedure, shortened: (§1)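 Lung cancer cell lines were pin-tool dosed in 1536-well plates on the day after seeding, with either a lone drug or a fixed anchor-drug dose plus five library-drug doses (not always all listed) in √10 steps. Nuclei were counted on 4× images after 5 days. Relative viability is the ratio of treated-well to vehicle-well nuclei counts, with each value a median of duplicate plates.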
# HOP-62 = test system: HOP-62
# Procedure, shortened: as §1
# NCI-H441 = test system: NCI-H441
# Procedure, shortened: as §1
# NCI-H1650 = test system: NCI-H1650
# Procedure, shortened: as §1
# NCI-H3122 = test system: NCI-H3122
# Procedure, shortened: as §1
# HARA = test system: HARA
# Procedure, shortened: as §1
# LK-2 = test system: LK-2
# Procedure, shortened: as §1
# NCI-H1651 = test system: NCI-H1651
# Procedure, shortened: as §1
# NCI-H2347 = test system: NCI-H2347
# Procedure, shortened: as §1
# COR-L23 = test system: COR-L23
# Procedure, shortened: as §1
# HCC-366 = test system: HCC-366
# Procedure, shortened: as §1
compound,measurement,setting,value
CCNC(=O)c1noc(-c2cc(C(C)C)c(O)cc2O)c1-c1ccc(CN2CCOCC2)cc1 [Luminespib] + Nc1nc2[nH]cc(CCc3ccc(C(=O)N[C@@H](CCC(=O)O)C(=O)O)cc3)c2c(=O)[nH]1 [Pemetrexed] (partner 0.2 µM),relative viability,EMC-BAC-2; first compound 0.02 µM,0.573
same,relative viability,EMC-BAC-2; first compound 0.06325 µM,0.383
same,relative viability,EMC-BAC-2; first compound 0.2 µM,0.444
same,relative viability,HOP-62; first compound 0.002 µM,0.314
same,relative viability,HOP-62; first compound 0.006325 µM,0.4
same,relative viability,HOP-62; first compound 0.02 µM,0.34
same,relative viability,HOP-62; first compound 0.06325 µM,0.156
same,relative viability,HOP-62; first compound 0.2 µM,0.125
same,relative viability,NCI-H441; first compound 0.002 µM,0.263
same,relative viability,NCI-H441; first compound 0.006325 µM,0.309
same,relative viability,NCI-H441; first compound 0.02 µM,0.248
same,relative viability,NCI-H441; first compound 0.06325 µM,0.153
same,relative viability,NCI-H441; first compound 0.2 µM,0.116
same,relative viability,NCI-H1650; first compound 0.002 µM,0.404
same,relative viability,NCI-H1650; first compound 0.006325 µM,0.368
same,relative viability,NCI-H1650; first compound 0.02 µM,0.426
same,relative viability,NCI-H1650; first compound 0.06325 µM,0.152
same,relative viability,NCI-H1650; first compound 0.2 µM,0.137
same,relative viability,NCI-H3122; first compound 0.002 µM,0.203
same,relative viability,NCI-H3122; first compound 0.006325 µM,0.182
same,relative viability,NCI-H3122; first compound 0.02 µM,0.184
same,relative viability,NCI-H3122; first compound 0.06325 µM,0.135
same,relative viability,NCI-H3122; first compound 0.2 µM,0.111
same,relative viability,HARA; first compound 0.002 µM,0.253
same,relative viability,HARA; first compound 0.006325 µM,0.24
same,relative viability,HARA; first compound 0.02 µM,0.273
same,relative viability,HARA; first compound 0.06325 µM,0.172
same,relative viability,HARA; first compound 0.2 µM,0.135
same,relative viability,LK-2; first compound 0.002 µM,0.299
same,relative viability,LK-2; first compound 0.006325 µM,0.159
same,relative viability,LK-2; first compound 0.02 µM,0.221
same,relative viability,LK-2; first compound 0.06325 µM,0.0902
same,relative viability,LK-2; first compound 0.2 µM,0.0524
same,relative viability,NCI-H1651; first compound 0.002 µM,0.555
same,relative viability,NCI-H1651; first compound 0.006325 µM,0.536
same,relative viability,NCI-H1651; first compound 0.02 µM,0.474
same,relative viability,NCI-H1651; first compound 0.06325 µM,0.646
same,relative viability,NCI-H1651; first compound 0.2 µM,0.443
same,relative viability,NCI-H2347; first compound 0.002 µM,0.402
same,relative viability,NCI-H2347; first compound 0.006325 µM,0.404
same,relative viability,NCI-H2347; first compound 0.02 µM,0.426
same,relative viability,NCI-H2347; first compound 0.06325 µM,0.42
same,relative viability,NCI-H2347; first compound 0.2 µM,0.317
same,relative viability,COR-L23; first compound 0.002 µM,0.19
same,relative viability,COR-L23; first compound 0.006325 µM,0.187
same,relative viability,COR-L23; first compound 0.02 µM,0.215
same,relative viability,COR-L23; first compound 0.06325 µM,0.196
same,relative viability,COR-L23; first compound 0.2 µM,0.101
same,relative viability,HCC-366; first compound 0.002 µM,0.169
same,relative viability,HCC-366; first compound 0.006325 µM,0.156
same,relative viability,HCC-366; first compound 0.02 µM,0.366
same,relative viability,HCC-366; first compound 0.06325 µM,0.0354
same,relative viability,HCC-366; first compound 0.2 µM,0.0333
